Source: PubChem BioAssay (NCI)
Several values for one entry are separate records, joined by “and”; a condition that tells them apart may be missing. Equal values may be shown once.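 The compound was tested at five concentrations on cells cultured in 96-well plates, with a 48-hour exposure period. GI50 marks 50% less growth. TGI: concentration producing complete growth inhibition.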

Legend:
Assay in all cases: NCI-60 cell line screen, 48 h
ACHN renal = tested on: ACHN renal
U251 CNS = tested on: U251 CNS
NCI-H226 lung = tested on: NCI-H226 lung
SF-268 CNS = tested on: SF-268 CNS
SR leukemia = tested on: SR leukemia
HT29 colon = tested on: HT29 colon
PC-3 prostate = tested on: PC-3 prostate
OVCAR-4 ovarian = tested on: OVCAR-4 ovarian
MDA-MB-231 breast = tested on: MDA-MB-231 breast
KM12 colon = tested on: KM12 colon

Row | SMILES | GI50 (ACHN renal) | TGI (ACHN renal) | GI50 (U251 CNS) | TGI (U251 CNS) | GI50 (NCI-H226 lung) | TGI (NCI-H226 lung) | GI50 (SF-268 CNS) | TGI (SF-268 CNS) | GI50 (SR leukemia) | TGI (SR leukemia) | GI50 (HT29 colon) | TGI (HT29 colon) | GI50 (PC-3 prostate) | TGI (PC-3 prostate) | GI50 (OVCAR-4 ovarian) [nM] | TGI (OVCAR-4 ovarian) [µM] | GI50 (MDA-MB-231 breast) | TGI (MDA-MB-231 breast) | GI50 (KM12 colon) | TGI (KM12 colon)
1 | CCN1CCN(c2nc(C)cc(NCc3cc(Nc4ccnc5cc(Cl)ccc45)ccc3F)n2)CC1 | 2470 nM | 7.4 µM | 1950 nM | 5.44 µM | 2.82 µM | 10.3 µM | 1.89 µM | 5.79 µM | 1300 nM | 5.89 µM | 1960 nM | 6.17 µM | 1720 nM | 8.66 µM | 1590 | 7.7 | 1440 nM | 3.56 µM | 2950 nM | 10.5 µM
2 | COc1cc(C(=O)/C=C/c2cc(-c3ccc4c(c3)OCO4)n[nH]2)cc(OC)c1OC | 2200 nM | 4.95 µM | 1210 nM | 2.49 µM | 1.52 µM | 4.25 µM | 2.45 µM | 7.64 µM | 1200 nM | 5.63 µM | 2450 nM | 6.53 µM | 1510 nM | 4.02 µM | 885 | 4.24 | 2080 nM | 6.23 µM | 1860 nM | 3.85 µM
3 | COc1ccc2c(c1)C(=Nc1ccc(F)c(Cl)c1)c1c-2c(Nc2ccc(F)c(Cl)c2)nc2ccccc12 | 24100 nM | > 70.8 µM | 18800 nM | 43.8 µM | 39 µM | > 77.6 µM | 29.7 µM | > 100 µM | 12.2 nM | 0.0862 µM | > 100000 nM | > 100 µM | > 94600 nM | > 100 µM | 24800 | > 75.7 | 23000 nM | > 61.3 µM | > 100000 nM | > 100 µM
4 | Cc1nc2sc(C(=O)Nc3cccc(Br)c3C)c(N)c2cc1C(O)c1ccccc1 (stereo not given) | 74.3 nM | 14.3 µM | 43.8 nM | 14.6 µM | 0.546 µM | 22.4 µM | 0.146 µM | 13 µM | 37.4 nM | > 100 µM | 37.4 nM | 12.7 µM | 46.2 nM | 37.7 µM | 147 | > 70.5 | 47.3 nM | 5.66 µM | 37.3 nM | 4.76 µM
5 | O=C1/C(=C\c2ccc(F)cc2)CN(C(=O)c2ccccc2F)C/C1=C\c1ccc(F)cc1 | 1610 nM | 3.6 µM | 1270 nM | 2.58 µM | 3.41 µM | 12.8 µM | 2.02 µM | 4.97 µM | 320 nM | 3.03 µM | 373 nM | 1.35 µM | 1620 nM | 4.89 µM | 2330 | 6.53 | 1830 nM | 3.95 µM | 371 nM | 1.32 µM
6 | CN1CCC2(CC1)N=C(SCC(=O)Nc1cnc3ccccc3c1)C(c1ccc(Br)cc1)=N2 | 1700 nM | 3.39 µM | 1830 nM | 3.65 µM | 10.4 µM | 26.2 µM | 3.46 µM | 14.7 µM | 2070 nM | 5.29 µM | 1850 nM | 3.64 µM | 1770 nM | 3.74 µM | 3520 | 15.8 | 1550 nM | 3.23 µM | 2620 nM | 6.55 µM
7 | CC(C)(C)[Si](C)(C)OCC1OC(n2cnc3c(=O)[nH]cnc32)CC1O (stereo not given) |  | > 100 µM |  | > 100 µM |  | > 100 µM |  | > 100 µM |  | > 100 µM |  | > 100 µM |  | > 100 µM |  | > 100 |  | > 100 µM |  | > 100 µM
8 | N#C/C(=C\c1cc(O)c(O)c(O)c1)C(N)=O |  | > 100 µM |  | > 100 µM |  | > 100 µM |  | > 100 µM |  | > 92.3 µM |  | > 100 µM |  | > 100 µM |  | > 100 |  | > 100 µM |  | > 100 µM
9 | C=CCn1c2ccccc2c2c3c(c4c5ccccc5n(CC=C)c4c21)C(=O)N(O)C3=O | 1600 nM | 3.89 µM | 2790 nM | 11.4 µM | 6.36 µM | 42.2 µM | 3.72 µM | 32.4 µM | 363 nM | 5.67 µM | 2020 nM | 4.9 µM | 2690 nM | 25.3 µM | 5380 | 44.8 | 4120 nM | 21.4 µM | 3200 nM | 18.4 µM
10 | Cc1cc(O)ccc1C1=NN(c2ccc(S(N)(=O)=O)cc2)C(=O)CC1 | 19300 nM and 38300 nM | 50 µM and > 100 µM | 6970 nM and 16100 nM | 50 µM and 67 µM | 10.9 µM and 94.5 µM | 50 µM and > 100 µM | 10.1 µM and 25.5 µM | 50 µM and > 100 µM | 1050 nM and 1120 nM | 50 µM and 6.78 µM | 2520 nM and 4650 nM | 50 µM and > 100 µM | 23500 nM and 52100 nM | 50 µM and > 100 µM | > 100000 | > 100 | 10900 nM and 21800 nM | 50 µM and > 100 µM | 2890 nM and 6490 nM | 50 µM and > 100 µM
11 | Cc1ccc(C[As+](c2ccccc2)(c2ccccc2)c2ccccc2)cc1 | 3660 nM | > 100 µM | 580 nM | 15.9 µM | 1.64 µM | > 100 µM | 1.08 µM | > 42.2 µM | 797 nM | 6.07 µM | 313 nM | 11.5 µM | 409 nM | 10.4 µM | 778 | > 100 | 1460 nM | 19.6 µM | 385 nM | 4.46 µM
12 | COC(=O)[C@H](Cc1cn(C)cn1)NC(=O)[C@H](CC(=O)OCc1ccccc1)NC(=O)Nc1cc(C(F)(F)F)cc(C(F)(F)F)c1 | 10400 nM | 24 µM | 2610 nM | 7.85 µM | 16.3 µM | 34.5 µM | 4.51 µM | 18.1 µM | 3670 nM and 2040 nM | 9.41 µM and 4.34 µM | 13900 nM | 28.8 µM | 12700 nM | 25.7 µM | 11600 | 27.1 | 10900 nM | 23.3 µM | 14000 nM | 30.7 µM
13 | C/C=C(\N=C=S)C(=O)OC1C(COC(C)=O)OC([C@]2(O)CC(=O)C(=N)C(C(=O)O)=C2O)C(O)C1OC1CC(OC)C(O)([C@@H](C)OC(=O)[C@@H](C)CC)C(C)O1 (stereo not given in full) |  | 33.1 µM |  | 21.8 µM |  | 39.5 µM |  | 23.2 µM |  | 23.2 µM |  | 23.6 µM |  | 32.7 µM |  | 19.4 |  | 51.7 µM |  | 19.9 µM
